This is an account of results in US20230167073A1 (Teijin Pharma Limited, priority 2020, published 2023).

The target in the experiment is T1, Human TRPC6 (Homo sapiens, UniProt Q9Y210).
T1 construct: expressed in transfected cells
T1 sequence (Q9Y210 1-931): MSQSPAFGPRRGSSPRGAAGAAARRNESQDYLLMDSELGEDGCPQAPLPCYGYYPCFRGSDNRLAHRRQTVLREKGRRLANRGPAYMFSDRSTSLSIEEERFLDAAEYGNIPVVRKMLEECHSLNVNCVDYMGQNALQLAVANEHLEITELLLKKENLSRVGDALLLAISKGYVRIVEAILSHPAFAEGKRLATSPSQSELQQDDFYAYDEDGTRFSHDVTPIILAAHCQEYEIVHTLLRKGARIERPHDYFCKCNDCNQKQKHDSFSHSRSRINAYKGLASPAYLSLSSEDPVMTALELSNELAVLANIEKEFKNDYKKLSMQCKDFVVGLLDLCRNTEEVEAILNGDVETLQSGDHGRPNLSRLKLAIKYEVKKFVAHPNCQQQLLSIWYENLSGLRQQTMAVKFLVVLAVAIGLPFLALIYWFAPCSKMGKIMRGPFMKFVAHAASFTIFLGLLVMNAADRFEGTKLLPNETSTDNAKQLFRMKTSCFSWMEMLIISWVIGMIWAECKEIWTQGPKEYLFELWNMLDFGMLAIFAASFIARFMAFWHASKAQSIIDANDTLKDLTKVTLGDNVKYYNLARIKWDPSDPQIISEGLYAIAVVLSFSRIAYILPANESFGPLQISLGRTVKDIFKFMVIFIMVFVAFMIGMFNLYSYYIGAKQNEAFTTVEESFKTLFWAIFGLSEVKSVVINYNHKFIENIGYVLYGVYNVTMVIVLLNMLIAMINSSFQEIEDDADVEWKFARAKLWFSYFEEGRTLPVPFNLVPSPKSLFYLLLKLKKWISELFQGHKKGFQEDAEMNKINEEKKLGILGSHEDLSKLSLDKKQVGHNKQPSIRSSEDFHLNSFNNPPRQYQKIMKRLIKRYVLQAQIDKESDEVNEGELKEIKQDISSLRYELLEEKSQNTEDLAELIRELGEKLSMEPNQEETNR
In words: Evaluation of TRPC6 channel inhibitory activity (1), FLIPR Calcium 5 Assay Kit, OAG stimulation (Compound Nos. 1-1293). The format is cell-based. To be noted: Human TRPC6 stably-expressing cells, OAG 30 μM, FLIPR Calcium 5 Assay Kit; read-out: Inhibitory activity (pIC50 class) (converted). The gist of the method:
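Cells stably expressing human TRPC6, plated 24 h before, were loaded 30 min with Calcium 5 dye plus probenecid in HEPES-HBSS. Compound was added 20 min before OAG (30 μM final) and fluorescence tracked on FLIPR. Inhibition normalised to no-compound and no-compound/no-OAG wells; pIC50 from four-parameter fit, reported as +/++/+++ categories.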

SMILES strings stand for the structures.

As for `Cc1nc(Oc2cc(C#N)ccc2-n2cc(C(O)CN)cn2)cc(-c2cccc(F)c2)n1` (stereo not shown) [Compound 141, 4-[4-(2-amino-1-hydroxyethyl)pyrazol-1-yl]-3-[6-(3-fluorophenyl)-2-methylpyrimidin-4-yl]oxybenzonitrile], the IC50 was 10 to 1000 nM. `Cc1ccc(-c2cc(Oc3cc(C#N)ccc3-n3cc(C(O)CN)cn3)nc(C)n2)cc1` (stereo not shown) [Compound 142, 4-[4-(2-amino-1-hydroxyethyl)pyrazol-1-yl]-3-[2-methyl-6-(4-methylphenyl)pyrimidin-4-yl]oxybenzonitrile]: the IC50 is 10 to 1000 nM. Regarding `Cc1nc(Oc2cc(C#N)ccc2-c2nc(C)c(CN(C)C)s2)cc(-c2ccccc2)n1` [Compound 143, 4-[5-[(dimethylamino)methyl]-4-methyl-1,3-thiazol-2-yl]-3-(2-methyl-6-phenylpyrimidin-4-yl)oxybenzonitrile], the IC50 is more than 1000 nM. The result for `Cc1nc(Oc2cc(C#N)ccc2-n2ccc(C(O)CN)n2)cc(N2CCOCC2)n1` (stereo not shown) [Compound 144, 4-[3-(2-amino-1-hydroxyethyl)pyrazol-1-yl]-3-(2-methyl-6-morpholin-4-ylpyrimidin-4-yl)oxybenzonitrile] reads 10 to 1000 nM; that for `N#Cc1ccc(-c2ccc(CCN)cc2)c(Oc2cc(N3CCOCC3)cnn2)c1` [Compound 145, 4-[4-(2-aminoethyl)phenyl]-3-(5-morpholin-4-ylpyridazin-3-yl)oxybenzonitrile], 10 to 1000 nM. For `Cc1nc(Oc2cc(C#N)ccc2-n2cc(C(=O)CN)cn2)cc(-c2ccccc2)n1` [Compound 146, 4-[4-(2-aminoacetyl)pyrazol-1-yl]-3-(2-methyl-6-phenylpyrimidin-4-yl)oxybenzonitrile] the value was more than 1000 nM. Take `N#Cc1ccc(-c2ccc(CCN)nc2)c(Oc2cc(N3CCOCC3)nc(C(F)(F)F)n2)c1` [Compound 147, 4-[6-(2-aminoethyl)pyridin-3-yl]-3-[6-morpholin-4-yl-2-(trifluoromethyl)pyrimidin-4-yl]oxybenzonitrile]: the IC50 was 10 to 1000 nM. `N#Cc1ccc(-c2ccc(CCN)cn2)c(Oc2cc(N3CCOCC3)nc(C(F)(F)F)n2)c1` [Compound 148, 4-[5-(2-aminoethyl)pyridin-2-yl]-3-[6-morpholin-4-yl-2-(trifluoromethyl)pyrimidin-4-yl]oxybenzonitrile]: the IC50 was 10 to 1000 nM. Regarding `Cc1nc(Oc2cc(C#N)ccc2-c2ccc(C(O)CN)c(F)c2)cc(N2CCOCC2)n1` (stereo not shown) [Compound 149, 4-[4-(2-Amino-1-hydroxyethyl)-3-fluorophenyl]-3-(2-methyl-6-morpholin-4-ylpyrimidin-4-yl)oxybenzonitrile], the IC50 was less than 10 nM. For the molecule `Cc1nc(Oc2cc(C#N)ccc2-c2ccc(C(O)CN)c(Cl)c2)cc(N2CCOCC2)n1` (stereo not shown) [Compound 150, 4-[4-(2-amino-1-hydroxyethyl)-3-chlorophenyl]-3-(2-methyl-6-morpholin-4-ylpyrimidin-4-yl)oxybenzonitrile], the IC50 is less than 10 nM. On to `Cc1nc(Oc2cc(C#N)ccc2-c2ccc(C(O)CN)c(C(F)(F)F)c2)cc(N2CCOCC2)n1` (stereo not shown) [Compound 151, 4-[4-(2-amino-1-hydroxyethyl)-3-(trifluoromethyl)phenyl]-3-(2-methyl-6-morpholin-4-ylpyrimidin-4-yl)oxybenzonitrile], for which the IC50 was 10 to 1000 nM. Consider `Cc1nc(Oc2cc(C#N)ccc2-c2ccc(C(O)CN)c(O)c2)cc(N2CCOCC2)n1` (stereo not shown) [Compound 152, 4-[4-(2-amino-1-hydroxyethyl)-3-hydroxyphenyl]-3-(2-methyl-6-morpholin-4-ylpyrimidin-4-yl)oxybenzonitrile], for which the IC50 was 10 to 1000 nM. Take `Cc1nc(Oc2cc(C#N)ccc2-c2ccc(C(O)CN)c(F)c2F)cc(N2CCOCC2)n1` (stereo not shown) [Compound 153, 4-[4-(2-amino-1-hydroxyethyl)-2,3-difluorophenyl]-3-(2-methyl-6-morpholin-4-ylpyrimidin-4-yl)oxybenzonitrile]: the IC50 was less than 10 nM.
